Results published in publication PMC8851638 (ACS Omega, 2022).
Converted amounts (≈) assume the structure as drawn. “And” between values parts separate entries of the source, which are not always exact repeats. Identical values can stand only once.

How the values were obtained:
RBCs = test: Hemolytic assay; assay type: cell-based; conditions: human RBCs; compounds 1.0 mg/mL; Triton X-100 0.1% v/v; 37 °C, 35 min
[1] = tested on: clinical pathogenic isolates; test: Single-step resistance selection, whole panel; assay type: cell-based; conditions: 4 × MIC
[2] = tested on: C. albicans100 (MDR00100); test: MIC and MFC by broth microdilution; assay type: cell-based, Candida albicans
C. albicans200 [3] = test: Single-step resistance selection; assay type: cell-based, Candida albicans; conditions: 4 × MIC, 48 h
C. albicans100 [4] = test: Single-step resistance selection; assay type: cell-based, Candida albicans; conditions: 4 × MIC, 48 h
C. albicans200 [5] = test: Time-kill kinetic assay; assay type: cell-based, Candida albicans
[6] = tested on: C. albicans100 (MDR00100); test: Agar well-diffusion antimicrobial sensitivity assay; assay type: cell-based, Candida albicans; conditions: Candida albicans, read-out: Inhibition Zone (IZ)
[7] = tested on: C. albicans200 (MDR00200); test: MIC and MFC by broth microdilution; assay type: cell-based, Candida albicans
[8] = tested on: C. albicans200 (MDR00200); test: Agar well-diffusion antimicrobial sensitivity assay; assay type: cell-based, Candida albicans; conditions: Candida albicans, read-out: Inhibition Zone (IZ)
C. albicans100 [9] = test: Time-kill kinetic assay; assay type: cell-based, Candida albicans

With `CC(=O)N1CCN(c2ccc(OCC3COC(Cn4ccnc4)(c4ccc(Cl)cc4Cl)O3)cc2)CC1` (stereo not shown) [KCA, Ketoconazole, reference compound] the “%lysis of RBCs” value (RBCs) was 15.38% and 15.38 ± 0.32%, the “mutation frequency, range over panel” value [1] was 3.19 × 10^–8 to 3.42 × 10^–9 and the “MIC (mean ± SEM)” value ([2]; C. albicans100, broth microdilution) was 0.49 ± 0.3 µg/mL (≈ 0.922 µM). The MFC/MIC ([2]; C. albicans100, ratio in parentheses) was 1, the MIC ([2]; Candida albicans, read-out: MIC (mean ± SEM), C. albicans100, broth microdilution) was 0.49 µg/mL (≈ 0.922 µM) and the “Single-step resistance frequency (mutation frequency)” value (C. albicans200 [3]) was 3.19 × 10^–8. For the same molecule, the “Single-step resistance frequency (mutation frequency)” value (C. albicans100 [4]) was 3.42 × 10^–9, the “time of reduction in the colony-forming units” value (C. albicans200 [5]) was 48 h and the zone of inhibition at 100000 µg/mL [6] was 21 ± 0.23 mm. It also gave an MFC/MIC ([7]; C. albicans200, ratio in parentheses) of 0.5, an MIC ([7]; Candida albicans, read-out: MIC (mean ± SEM), C. albicans200, broth microdilution) of 0.45 ± 0.3 µg/mL (≈ 0.847 µM) and a zone of inhibition at 100000 µg/mL [8] of 24 ± 0.54 mm. For the same molecule, the “time of reduction in the colony-forming units” value (C. albicans100 [9]) was 48 h.
